From PubChem BioAssay (NCI)
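All cell lines were grown in 96-well plates and treated with compound for 48 hours. GI50 = concentration required for 50% inhibition of growth. At the TGI there is no net growth.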

How the values were obtained:
Experiment in all cases: DTP human tumour cell line panel, 48 h
[1] = system: NCI-H522 lung
[2] = system: BT-549 breast
[3] = system: OVCAR-5 ovarian
[4] = system: KM12 colon
[5] = system: SK-MEL-5 melanoma
[6] = system: MDA-MB-231 breast
[7] = system: M14 melanoma
[8] = system: SR leukemia
[9] = system: HOP-92 NSCLC
[10] = system: CAKI-1 renal
[11] = system: HCT-116 colon
[12] = system: HS 578T breast
[13] = system: HCT-15 colon
[14] = system: SF-268 CNS
[15] = system: TK-10 renal
[16] = system: SK-MEL-2 melanoma
[17] = system: RXF 393 renal
[18] = system: IGROV1 ovarian
[19] = system: UO-31 renal
[20] = system: RPMI-8226 leukemia
[21] = system: PC-3 prostate
[22] = system: T-47D breast
[23] = system: CCRF-CEM leukemia
[24] = system: HL-60(TB) leukemia
[25] = system: OVCAR-8 ovarian
[26] = system: SN12C renal
[27] = system: HOP-62 NSCLC
[28] = system: SW-620 colon
[29] = system: SNB-75 CNS
[30] = system: NCI-H460 lung
[31] = system: SNB-19 CNS
[32] = system: UACC-62 melanoma
[33] = system: DU-145 prostate
[34] = system: EKVX NSCLC
[35] = system: NCI-H23 lung
[36] = system: COLO 205 colon
[37] = system: NCI/ADR-RES ovarian
[38] = system: SK-MEL-28 melanoma
[39] = system: MALME-3M melanoma
[40] = system: A549 NSCLC
[41] = system: SF-295 CNS
[42] = system: K-562 leukemia
[43] = system: MCF7 breast
[44] = system: HT29 colon
[45] = system: UACC-257 melanoma
[46] = system: ACHN renal
[47] = system: HCC-2998 colon
[48] = system: OVCAR-4 ovarian
[49] = system: SF-539 CNS
[50] = system: 786-0 renal
[51] = system: MOLT-4 leukemia
[52] = system: A498 renal
[53] = system: MDA-MB-435
[54] = system: U251 CNS
[55] = system: NCI-H226 lung

CNC(=O)c1c(NC(=O)c2ccccc2C(F)(F)F)sc2c1CCC(=O)C2
GI50 [1]: 0.347 µM | TGI [1]: 2.33 µM | GI50 [2]: 2.54 µM | TGI [2]: > 100 µM | GI50 [3]: 1.48 µM | TGI [3]: 5.58 µM | GI50 [4]: 4.29 µM | TGI [4]: 16.8 µM | GI50 [5]: 1.7 µM | TGI [5]: 3.72 µM | GI50 [6]: 2 µM | TGI [6]: 4.78 µM | GI50 [7]: 2.51 µM | TGI [7]: 33.5 µM | GI50 [8]: 0.538 µM | TGI [8]: > 100 µM | GI50 [9]: 1.2 µM | TGI [9]: 3.39 µM | GI50 [10]: 0.464 µM | TGI [10]: 2.55 µM | GI50 [11]: 0.384 µM | TGI [11]: 12.1 µM | GI50 [12]: 3.01 µM | TGI [12]: > 100 µM | GI50 [13]: 0.37 µM | TGI [13]: 10.5 µM | GI50 [14]: 3.19 µM | TGI [14]: > 100 µM | GI50 [15]: 1.54 µM | TGI [15]: > 100 µM | GI50 [16]: 2.77 µM | TGI [16]: 7.6 µM | GI50 [17]: 1.12 µM | TGI [17]: 4.2 µM | GI50 [18]: 1.87 µM | TGI [18]: 17.8 µM | GI50 [19]: 0.574 µM | TGI [19]: 1.95 µM | GI50 [20]: 0.278 µM | GI50 [21]: 0.426 µM | TGI [21]: 14.6 µM | GI50 [22]: 0.528 µM | TGI [22]: 4.98 µM | GI50 [23]: 0.348 µM | TGI [23]: > 100 µM | GI50 [24]: 0.339 µM | TGI [24]: 13.4 µM | GI50 [25]: 1.41 µM | TGI [25]: > 100 µM | GI50 [26]: 2.9 µM | TGI [26]: > 100 µM | GI50 [27]: 3.44 µM | TGI [27]: > 100 µM | GI50 [28]: 0.363 µM | TGI [28]: 12.2 µM | GI50 [29]: 1.54 µM | TGI [29]: 6.82 µM | GI50 [30]: 3.27 µM | TGI [30]: > 100 µM | GI50 [31]: 3.18 µM | TGI [31]: > 100 µM | GI50 [32]: 1.45 µM | TGI [32]: 3.91 µM | GI50 [33]: 4.45 µM | TGI [33]: > 100 µM | GI50 [34]: 1.99 µM | TGI [34]: 37.6 µM | GI50 [35]: 1.33 µM | TGI [35]: 7.61 µM | GI50 [36]: 1.29 µM | TGI [36]: 3.12 µM | GI50 [37]: 1.97 µM | TGI [37]: 13.4 µM | GI50 [38]: 3.59 µM | TGI [38]: 54.9 µM | GI50 [39]: 2.26 µM | TGI [39]: 6.33 µM | GI50 [40]: 3.28 µM | TGI [40]: > 100 µM | GI50 [41]: 2.51 µM | TGI [41]: 7.63 µM | GI50 [42]: 0.417 µM | TGI [42]: > 100 µM | GI50 [43]: 1.91 µM | TGI [43]: 11.9 µM | GI50 [44]: 1.45 µM | TGI [44]: 9.66 µM | GI50 [45]: 2.76 µM | TGI [45]: 8.28 µM | GI50 [46]: 0.397 µM | TGI [46]: 2.03 µM | GI50 [47]: 2.96 µM | TGI [47]: 15.2 µM | GI50 [48]: 1.58 µM | TGI [48]: 4 µM | GI50 [49]: 0.678 µM | TGI [49]: 2.22 µM | GI50 [50]: 3.8 µM | TGI [50]: > 100 µM | GI50 [51]: 1.2 µM | TGI [51]: > 100 µM | GI50 [52]: 2.09 µM | TGI [52]: 6.24 µM | GI50 [53]: 2.72 µM | TGI [53]: 11.2 µM | GI50 [54]: 0.817 µM | TGI [54]: > 100 µM | GI50 [55]: 2.46 µM | TGI [55]: 8.01 µM
